In patent US20180272270A1, “AMINE COMPOUNDS FOR SELECTIVELY REMOVING HYDROGEN SULPHIDE” (BASF SE, priority 2015, published 2018):

Test: Dynamic viscosity of the amines (Anton Paar Stabinger SVM3000 viscometer)
Format: physicochemical

CC(C)(C)NCCOCCO [TBAEE, 2-(2-tert-butylaminoethoxy)ethanol, reference compound]
Dynamic viscosity (20 ° C.): 58.4 mPa · s | Dynamic viscosity (60 ° C.): 6.9 mPa · s | Dynamic viscosity (80 ° C.): 3.6 mPa · s

CN(C)CCOCCNC(C)(C)C [TBAEEDA, 2-(2-tert-butylaminoethoxy)ethyl-N,N-dimethylamine]
Dynamic viscosity (20 ° C.): 5.4 mPa · s | Dynamic viscosity (40 ° C.): 2.5 mPa · s | Dynamic viscosity (60 ° C.): 1.6 mPa · s | Dynamic viscosity (80 ° C.): 1.1 mPa · s
